For one test, the system named is Isolated Rat Bladder Strips. Briefly: Inhibition of contractions in isolated rat bladder strips (smooth muscle relaxing activity, KCl-enhanced contractions). The format is cell-based, Sprague-Dawley rats. The settings on record: 0.5 h, 15 mM KCl added, 30 minute challenge, read-out: IC50 (concentration required to elicit 50% inhibition of pre-drug contractile activity). The text has this:
The smooth muscle relaxing activity of the compounds of this invention was established in accordance with standard pharmaceutically accepted test procedures in representative compounds as follows:
Sprague-Dawley rats (150-200 g) are rendered unconscious by CO2 asphyxiation and then euthanized by cervical dislocation. The bladder is removed into warm (37 deg. C.) physiological salt solution (PSS) of the following composition (mM): NaCl, 118.4; KCl, 4.7; CaCl2, 2.5; […]; NaHCO3, 24.9; KH2 PO4, 1.2; glucose, 11.1; EDTA, 0.023; gassed with […]; pH 7.4. The bladder is opened and then cut into strips 1-2 mm in width and 7-10 mm in length. The strips are subsequently suspended in a 10 mL tissue bath under an initial resting tension of 1.5 g. The strips are held in place by two surgical clips one of which is attached to a fixed hook while the other is attached to an isometric force transducer. […] The carbachol is then washed out and the tissue allowed to relax to its resting level of activity. Following one further 30 minute period of recovery, an additional 15 mM KCl are introduced into the tissue bath. This increase in KCl concentration results in a large increase in the amplitude of spontaneous contractions (and initiation of contractions in previously quiescent strips) superimposed upon a small increase in basal tone. Following stabilization of this enhanced level of contractile activity, incremental increases in the concentration of test compound or vehicle are introduced into the tissue bath. Contractile activity is measured for each compound or vehicle concentration during the last minute of a 30 minute challenge.
The isometric force developed by the bladder strips is measured using a […] to elicit 50% inhibition of pre-drug contractile activity (IC50 concentration) is calculated from this concentration-response curve.
Consider `CC(Nc1c(Nc2cccnc2)c(=O)c1=O)C(C)(C)C` (stereo not shown) [Example 3, 3-(Pyridin-3-ylamino)-4-(1,2,2-trimethyl-propylamino)-cyclobut-3-ene-1,2-dione], for which the IC50 came to 1.95 µM.
Same read-out and setting: then `CC(C)(C)Nc1c(Nc2cccc3cnccc23)c(=O)c1=O` [Example 8, 3-Tert-butylamino-4-(isoquinolin-5-ylamino)-cyclobut-3-ene-1,2-dione], with 1.84 µM.
On the same count and under the same terms, in the case of `CC(Nc1c(Nc2ccc(C#N)cc2)c(=O)c1=O)C(C)(C)C` (stereo not shown) [Example 21, 4-[3,4-Dioxo-2-(1,2,2-trimethyl-propylamino)-cyclobut-1-enylamino]-benzonitrile] it was 0.52 µM; in that of `CCc1cc(C#N)ccc1Nc1c(N[C@H](C)C(C)(C)C)c(=O)c1=O` [Example 24, (+)-(R )-4-[3,4-Dioxo-2-(1,2,2-trimethyl-propylamino)-cyclobut-1-enylamino]-3-ethyl-benzonitrile], 0.021 µM.
`CC(C)(C)Nc1c(Nc2ccc3cn[nH]c3c2)c(=O)c1=O` [Example 19, 3-Tert-butylamino-4-(1H-indazol-6-ylamino)-cyclobut-3-ene-1,2-dione]: the IC50 is 6.34 µM.
Consider `O=c1c(Nc2ccncc2)c(N[C@H]2C[C@@H]3CC[C@H]2C3)c1=O` (relative stereo) [Example 2, (Exo)-3-(bicyclo[2.2.1]hept-2-ylamino)-4-(pyridin-4-ylamino)-cyclobut-3,-ene-1,2-dione], for which the IC50 is 15.8 µM.
On the same count and under the same terms, in the case of `CC(Nc1c(Nc2cccc3cccnc23)c(=O)c1=O)C(C)(C)C` (stereo not shown) [Example 10, 3-(Quinolin-8-ylamino)-4-(1,2,2-trimethyl-propylamino)-cyclobut-3-ene-1,2-dione] it was 8 µM; in that of `COc1cc(C#N)ccc1Nc1c(N[C@H](C)C(C)(C)C)c(=O)c1=O` [Example 25, (+)-(R)-4-[3,4-Dioxo-2-(1,2,2-trimethyl-propylamino)-cyclobut-1-enylamino]-3-methoxy-benzonitrile], 0.29 µM; in that of `CC(Nc1c(Nc2ccncc2)c(=O)c1=O)C(C)(C)C` (stereo not shown) [Example 1, 3-(Pyridin-4-ylamino)-4-(1,2,2-trimethyl-propylamino)-cyclobut-3-ene-1,2-dione], 1.36 µM.
Same read-out and setting: in the case of `CC(C)(C)Nc1c(Nc2cccnc2)c(=O)c1=O` [Example 7, 3-Tert-butylamino-4-(pyridin-3-ylamino)-cyclobut-3-ene-1,2-dione] it was 2.8 µM.

The test is the same for the next values; noted with them: 0.5 h, at 30 μM, 15 mM KCl added, 30 minute challenge, read-out: Inhibition of Force (%) at (x) μM.
In general, inhibition refers to the share of the control response that was lost under treatment. As for `Nc1c(Nc2cccnc2)c(=O)c1=O` [Example 6], the inhibition at 30 µM amounted to 31%.
`CC(C)(C)Nc1c(Nc2cnc3ccccc3c2)c(=O)c1=O` [Example 14, 3-Tert-butylamino-4-(quinolin-3-ylamino)-cyclobut-3-ene-1,2-dione]: the inhibition at 30 µM was found to be 51%.
On the same count and under the same terms, in the case of `Nc1c(Nc2cccc3cnccc23)c(=O)c1=O` [Example 9, 3-Amino-4-(isoquinolin-5-ylamino)-cyclobut-3-ene-1,2-dione] it was 43%.

The values above are taken from patent US5506252A, “Substituted N-heteroaryl and N-aryl-1,2-diaminocyclobutene-3,4-diones” (American Home Products Corporation, priority 1994, dated 1996).
